One series has as its system KB-D-15 Epidermoid cells. Conditions: cited from earlier work.
For series [1], the system named is HCT-15 colorectal carcinoma cells. Particulars: cited from earlier work.
The next series has as its system CT-26 cell line. Conditions: CT-26, resistant cell line; cited from earlier work.
Series [2] can be described thus: Pharmacokinetic profile of locally administered formulations vs i.v docetaxel (Example 11). Format: in vivo, Sprague-Dawley female Rats. The text has this: This study compared the pharmacokinetics profile of docetaxel sustained release composition according to several embodiments of the invention administered to rats. The systemic PK profile of docetaxel released from the local administered formulations was compared to the PK profile of docetaxel administered i.v.
Animals: 30 Sprague-Dawley female Rats weighing+/−200 gram
Experimental Design—three study groups (n=10) were included in this study. Animals were anesthetized and skin above the right hip was cut (1 cm long) and lifted, creating a SC pocket. By making this pocket, the underlying muscle was slightly injured, mimicking the situation of the resection of SC tumor graft in the rat model. Each animal received the treatment as detailed in Table 7. In Groups 1 and 2, Formulations VI and I respectively were administered in the SC pocket on top of the injured muscle. The skin was then sutured. In the i.v. treated group (Group 3), the administration of treatment was given once, immediately after wound closure. After administration, blood samples were collected in the designated time points. Each treatment group was divided to two subgroups (n=5/subgroup) and each subgroup was sampled at the different time points. Blood was collected at 0.5, 1, 2, 4, 8, 12, and 24 hours and at 2, 3, 4, 5, 6, 7, 14, 21, and 30 days post-administration. Clinical signs and animal weights were followed during the study. The concentration of the released docetaxel in the plasma samples was evaluated by a liquid chromatography tandem mass spectrometry (LC-MS/MS) method (lower limit of quantitation [LLOQ]=3 ng/mL). The results were used to determine the PK profile of docetaxel.

The next series concerns CRC: HCT-116 cells. Conditions: HCT-116, non-resistant; cited from earlier work.
Another series relates to KB-P-15 Epidermoid cells. Particulars: cited from earlier work.
The test system of a further series is epidermoid KB-3-1 cells. Particulars: KB-3-1, non-resistant; cited from earlier work.
Series [3] deals with A549.EpoB40 non squamous cell lung carcinoma. Particulars: cited from earlier work.
Another series relates to NSCLC: A549 cells. Conditions: A549, non-resistant; cited from earlier work.
Series [4] relates to HCT-8 colorectal carcinoma cells. Particulars: cited from earlier work.
In series [5] the test system is DLD-1 colorectal carcinoma cells. Particulars: cited from earlier work.
In series [6] the test system is KB-PTX/099 Epidermoid cells. Particulars: cited from earlier work.
A further series concerns KB-V-1 Epidermoid cells. Conditions: cited from earlier work.
For the next series, the system named is KB-8-5 Epidermoid cells. Conditions: cited from earlier work.
Series [7] concerns CT-26 subcutaneous colon carcinoma tumors. Conditions: for survival rate / tumor free animals: Day 39; for average tumor volume: after 39 days; for day animals started to gain weight: mouse, in vivo. From the text:
In the current experiment, the efficacy of local treatment with extended-release formulations according to some embodiments of the invention was compared to systemic treatment with Docetaxel. For that, subcutaneous colon carcinoma tumors were established in female BALB/c mice (7-8 weeks old, weighing ±16-20 gram at study initiation) and after reaching a desired volume (400-600 mm^3), they were resected and ˜90% of their volume was removed followed by administration of the test items. The recurrence rate of the tumors was followed and compared to an untreated control group.
Animals were injected SC with 0.5 million CT-26 cells above the right hip. When the tumor reached the desired volume (400 mm^3) after ˜7 days, animals were divided to five groups, mice were anesthetized, and the tumors were resected. Group 1 was administered with 200 mg of formulation VI containing 1.3% docetaxel (2.6 mg/mouse) to the tumor bed and Group 2 was administered with 200 mg of formulation I containing 0.88% docetaxel ([…]) to the tumor bed. Groups 3 and 4 were treated by repeated i.v injections of docetaxel solution. Group 3 was administered with 20 mg/kg i.v followed by five i.v injections of 10 mg/kg, once every 4 days. Group 4 was administered with 30 mg/kg i.v followed by five IV injections of 15 mg/kg, once every 4 days. Group 5 served as a saline-treated control with ˜100 μL saline administered locally into the tumor bed. The skin incision was then closed using a sterile suture. Post-surgery, the animals were returned to their cages for recovery and observation. Tumor size, clinical signs, and body weights were followed for 39 days.

For series [8] the following is noted: iv; NDA 020449; cited from earlier work.
Where [9] appears, read: female, Sprague-Dawley, rat, intravenous, plasma docetaxel, single i.v 10 mg/kg.
The mark [10] stands for this setting: female, Sprague-Dawley, rat, iv, plasma docetaxel, single i.v 10 mg/kg.

The structures appear in SMILES notation. Like-named read-outs stand apart in the source and are kept apart here.

For orientation: IC50 means the concentration that inhibits the measured activity by half. The term AUC(0-t) denotes the area under the concentration-time curve up to a stated or last time point. Lower therefore signals less exposure. The Cmax is the peak of the concentration-time curve. The term Tmax denotes the time from dosing to the highest level. Broadly, the half-life is how long it takes for the measured level to halve. Low values mean rapid decline, high ones slow decline. Consider `CC(=O)O[C@@]12CO[C@@H]1C[C@H](O)[C@@]1(C)C(=O)[C@H](O)C3=C(C)[C@@H](OC(=O)[C@H](O)[C@@H](NC(=O)OC(C)(C)C)c4ccccc4)C[C@@](O)([C@@H](OC(=O)c4ccccc4)[C@H]21)C3(C)C` [docetaxel], for which the half-maximal inhibitory concentration (IC50) in the series on KB-D-15 Epidermoid cells is 68.2 nM; in series [1] it was 54.1 nM; in the series with CT-26 cell line, 260 nM; with CRC: HCT-116 cells, 5.4 nM; in the series on KB-P-15 Epidermoid cells, 17.6 nM; with epidermoid KB-3-1 cells it was 1.1 nM. In addition, the IC50 in series [3] is 28.5 nM; with NSCLC: A549 cells, 1.9 nM; in [4], 3070 nM; in [5] it was 16.2 nM; in [6], 8.8 nM; in the series with KB-V-1 Epidermoid cells, 468 nM. Moreover, the IC50 with KB-8-5 Epidermoid cells was 8.8 nM. Besides, the “Cmax of i.v relative to max exposure of Formulation VI” value in [2] (881 vs. 80.4 ng/ml) is reported as “more than 10 fold”. Moreover, the AUC(0-t) in series [2] (setting [9]) was 2280 ng·h/mL. This molecule yielded a Cmax in series [2] (setting [9]) of 881 ng/mL. In addition, in series [2] (setting [10]), the C0 worked out at 881 ng/mL. In addition, in series [2] (setting [10]), the Tmax stood at 0 h. In series [2] (setting [10]), this molecule gave a half-life of 23.1 h. In [2] (plasma docetaxel, single i.v 10 mg/kg), this molecule came in with a Tlast of 72 h. Also, the survival rate worked out at 50% in series [7] (i.v 10 mg/kg every 4 days) and 63% in series [7] (i.v 15 mg/kg every 4 days). The tumor free animals in series [7] (i.v 20 mg/kg then five injections of 10 mg/kg every 4 days) is listed as 2/8; in series [7] (i.v 30 mg/kg then five injections of 15 mg/kg every 4 days) it was 3/8. Besides, the average tumor volume is on record as 955 mm^3 in [7] (i.v 10 mg/kg every 4 days) and 485 mm^3 in series [7] (i.v 15 mg/kg every 4 days). Besides, in series [7] (day 39 post surgery, five cycles of systemic treatment), the “overall tumor free survival” value worked out at 25%. The molecule also returned an overall tumor recurrence in series [7] (end of study, extensive systemic treatment) of 75%. The “animals terminated early due to tumor volume that exceeded 1500 mm^3” value in [7] (i.v 10 mg/kg every 4 days) amounted to 4; in series [7] (i.v 15 mg/kg every 4 days), 2. The “day animals started to gain weight” value in [7] (10 mg/kg) was determined as 20 days; in [7] (15 mg/kg) it was 23 days. In series [7] (systemic treatment arm), the “delayed tumor recurrence after tumor resection (first tumor related mortality)” value is recorded as 9 days.

Take `CC(=O)O[C@@]12CO[C@@H]1C[C@H](O)[C@@]1(C)C(=O)[C@H](O)C3=C(C)[C@@H](OC(=O)[C@H](O)[C@@H](NC(=O)OC(C)(C)C)c4ccccc4)C[C@@](O)([C@@H](OC(=O)c4ccccc4)[C@H]21)C3(C)C` [Taxotere]: the “maximal tolerated dose (MTD) and non-lethal dose (NLD) reported” value in series [8] is listed as 10 mg/kg.

These data come from patent US20240050396A1, “COMPOSITIONS AND METHODS FOR THE TREATMENT OF SOLID TUMORS” (POLYPID LTD., priority 2020, published 2024).
